Laboratory results from the NIST ThermoML archive (doi:10.1021/acs.jced.8b01135).
± gives the expanded uncertainty stated by the source.

Assay: xn = mol fraction of the nth substance listed
Details: 102 kPa, Liquid; for speed of sound: Frequency=3 MHz, Single path-length method; for mass density: Vibrating tube method; for viscosity: Concentric cylinders viscometry

CCCCCCCCC1CCCCC1 [octylcyclohexane] + CCCCCCCCCCCC
Details | mass density [kg/m3] | speed of sound [m/s] | viscosity [mPa·s]
288.15 K, x1 = 0.1 | 759.33 ± 0.71 | 1326.2 ± 0.8 | –
288.15 K, x1 = 0.1998 | 766.24 ± 0.71 | 1335.1 ± 0.8 | –
288.15 K, x1 = 0.3002 | 772.95 ± 0.71 | 1344.1 ± 0.9 | –
288.15 K, x1 = 0.3998 | 779.63 ± 0.71 | 1353.1 ± 0.9 | –
288.15 K, x1 = 0.4948 | 785.9 ± 0.71 | 1361.6 ± 0.9 | –
288.15 K, x1 = 0.5997 | 792.69 ± 0.71 | 1370.8 ± 0.9 | –
288.15 K, x1 = 0.6996 | 798.98 ± 0.71 | 1379.4 ± 0.9 | –
288.15 K, x1 = 0.7999 | 805.34 ± 0.72 | 1388.2 ± 1 | –
288.15 K, x1 = 0.9 | 811.48 ± 0.72 | 1396.9 ± 1 | –
288.15 K, x1 = 1 | 817.58 ± 0.72 | 1405.5 ± 1 | –
293.15 K, x1 = 0.1 | 755.72 ± 0.71 | 1306.9 ± 0.8 | 1.61 ± 0.02
293.15 K, x1 = 0.1998 | 762.65 ± 0.71 | 1315.8 ± 0.8 | 1.74 ± 0.02
293.15 K, x1 = 0.3002 | 769.38 ± 0.71 | 1324.8 ± 0.9 | 1.91 ± 0.02
293.15 K, x1 = 0.3998 | 776.08 ± 0.71 | 1333.9 ± 0.9 | 2.05 ± 0.02
293.15 K, x1 = 0.4948 | 782.36 ± 0.71 | 1342.3 ± 0.9 | 2.23 ± 0.02
293.15 K, x1 = 0.5997 | 789.17 ± 0.71 | 1351.6 ± 0.9 | 2.44 ± 0.02
293.15 K, x1 = 0.6996 | 795.48 ± 0.71 | 1360.3 ± 0.9 | 2.66 ± 0.02
293.15 K, x1 = 0.7999 | 801.86 ± 0.72 | 1369.1 ± 1 | 2.91 ± 0.03
293.15 K, x1 = 0.9 | 808.01 ± 0.72 | 1377.8 ± 1 | 3.2 ± 0.03
293.15 K, x1 = 1 | 814.13 ± 0.72 | 1386.4 ± 1 | 3.52 ± 0.03
298.15 K, x1 = 0.1 | 752.11 ± 0.71 | 1287.6 ± 0.8 | –
298.15 K, x1 = 0.1998 | 759.06 ± 0.71 | 1296.5 ± 0.8 | –
298.15 K, x1 = 0.3002 | 765.81 ± 0.71 | 1305.5 ± 0.9 | –
298.15 K, x1 = 0.3998 | 772.53 ± 0.71 | 1314.8 ± 0.9 | –
298.15 K, x1 = 0.4948 | 778.83 ± 0.71 | 1323.4 ± 0.9 | –
298.15 K, x1 = 0.5997 | 785.65 ± 0.71 | 1332.6 ± 0.9 | –
298.15 K, x1 = 0.6996 | 791.98 ± 0.71 | 1341.2 ± 0.9 | –
298.15 K, x1 = 0.7999 | 798.37 ± 0.72 | 1350.2 ± 1 | –
298.15 K, x1 = 0.9 | 804.53 ± 0.72 | 1358.7 ± 1 | –
298.15 K, x1 = 1 | 810.67 ± 0.72 | 1367.4 ± 1 | –
303.15 K, x1 = 0.1 | 748.5 ± 0.71 | 1268.4 ± 0.8 | 1.36 ± 0.02
303.15 K, x1 = 0.1998 | 755.45 ± 0.71 | 1277.3 ± 0.8 | 1.47 ± 0.02
303.15 K, x1 = 0.3002 | 762.24 ± 0.71 | 1286.4 ± 0.9 | 1.6 ± 0.02
303.15 K, x1 = 0.3998 | 768.97 ± 0.71 | 1295.9 ± 0.9 | 1.69 ± 0.02
303.15 K, x1 = 0.4948 | 775.29 ± 0.71 | 1304.4 ± 0.9 | 1.82 ± 0.02
303.15 K, x1 = 0.5997 | 782.13 ± 0.71 | 1313.8 ± 0.9 | 1.98 ± 0.02
303.15 K, x1 = 0.6996 | 788.47 ± 0.72 | 1322.2 ± 0.9 | 2.15 ± 0.02
303.15 K, x1 = 0.7999 | 794.88 ± 0.72 | 1331.4 ± 1 | 2.34 ± 0.02
303.15 K, x1 = 0.9 | 801.06 ± 0.72 | 1339.9 ± 1 | 2.55 ± 0.02
303.15 K, x1 = 1 | 807.2 ± 0.72 | 1348.6 ± 1 | 2.79 ± 0.03
313.15 K, x1 = 0.1 | 741.26 ± 0.71 | 1230.7 ± 0.8 | 1.16 ± 0.02
313.15 K, x1 = 0.1998 | 748.26 ± 0.71 | 1239.6 ± 0.8 | 1.24 ± 0.02
313.15 K, x1 = 0.3002 | 755.08 ± 0.71 | 1248.9 ± 0.9 | 1.33 ± 0.02
313.15 K, x1 = 0.3998 | 761.84 ± 0.71 | 1258.6 ± 0.9 | 1.43 ± 0.02
313.15 K, x1 = 0.4948 | 768.19 ± 0.71 | 1267.1 ± 0.9 | 1.52 ± 0.02
313.15 K, x1 = 0.5997 | 775.07 ± 0.72 | 1276.7 ± 0.9 | 1.64 ± 0.02
313.15 K, x1 = 0.6996 | 781.45 ± 0.72 | 1285.1 ± 0.9 | 1.77 ± 0.02
313.15 K, x1 = 0.7999 | 787.89 ± 0.72 | 1294.4 ± 1 | 1.92 ± 0.02
313.15 K, x1 = 0.9 | 794.1 ± 0.72 | 1302.8 ± 1 | 2.08 ± 0.02
313.15 K, x1 = 1 | 800.28 ± 0.72 | 1311.6 ± 1 | 2.26 ± 0.02
323.15 K, x1 = 0.1 | 734 ± 0.71 | 1193.7 ± 0.8 | 1 ± 0.02
323.15 K, x1 = 0.1998 | 741.03 ± 0.71 | 1202.7 ± 0.8 | 1.07 ± 0.02
323.15 K, x1 = 0.3002 | 747.89 ± 0.71 | 1212.2 ± 0.9 | 1.14 ± 0.02
323.15 K, x1 = 0.3998 | 754.69 ± 0.71 | 1221.9 ± 0.9 | 1.23 ± 0.02
323.15 K, x1 = 0.4948 | 761.08 ± 0.72 | 1230.5 ± 0.9 | 1.31 ± 0.02
323.15 K, x1 = 0.5997 | 768 ± 0.72 | 1240.1 ± 0.9 | 1.38 ± 0.02
323.15 K, x1 = 0.6996 | 774.42 ± 0.72 | 1248.7 ± 0.9 | 1.48 ± 0.02
323.15 K, x1 = 0.7999 | 780.88 ± 0.72 | 1258.1 ± 1 | 1.6 ± 0.02
323.15 K, x1 = 0.9 | 787.14 ± 0.72 | 1266.6 ± 1 | 1.73 ± 0.02
323.15 K, x1 = 1 | 793.35 ± 0.72 | 1275.5 ± 1 | 1.87 ± 0.02
333.15 K, x1 = 0.1 | 726.7 ± 0.71 | 1157.6 ± 0.8 | 0.865 ± 0.021
333.15 K, x1 = 0.1998 | 733.78 ± 0.71 | 1166.9 ± 0.8 | 0.923 ± 0.021
333.15 K, x1 = 0.3002 | 740.68 ± 0.71 | 1176.4 ± 0.9 | 0.984 ± 0.021
333.15 K, x1 = 0.3998 | 747.52 ± 0.72 | 1186 ± 0.9 | 1.06 ± 0.02
333.15 K, x1 = 0.4948 | 753.94 ± 0.72 | 1194.8 ± 0.9 | 1.12 ± 0.02
333.15 K, x1 = 0.5997 | 760.9 ± 0.72 | 1204.5 ± 0.9 | 1.18 ± 0.02
333.15 K, x1 = 0.6996 | 767.37 ± 0.72 | 1213.3 ± 0.9 | 1.26 ± 0.02
333.15 K, x1 = 0.7999 | 773.86 ± 0.72 | 1222.7 ± 1 | 1.36 ± 0.02
333.15 K, x1 = 0.9 | 780.16 ± 0.72 | 1231.5 ± 1 | 1.46 ± 0.02
333.15 K, x1 = 1 | 786.41 ± 0.72 | 1240.3 ± 1 | 1.57 ± 0.02
